Marks after values point to notes of the source that are not given here.
Tests used:
Assay type in all cases: in vivo, C57BL/6J mice
[1] = test system: nonalcoholic fatty liver mice induced by high-fat feed; assay: Liver weight and liver/body weight ratio in high-fat feed induced nonalcoholic fatty liver mice
Experimental: (§1) 1. Preparation of the Composition of the Present invention • (1) L008 and H008 groups: The composition is the red yeast rice of the present invention obtained by fermenting rice with the Monascus pilosus of the present invention as described in Embodiment 2. The daily dosage for adults in the L008 and H008 groups is 0.5 g/day and 2 g/day, containing 1.5 mg/day and 6 mg/day of monascinol (a compound having the structure of Formula (I)), respectively. • (2) Msol group: Monascinol (a compound having the structure of Formula (I)), with a daily dosage of 6 mg/day for adults.
(§2) The experiment used 7-week-old male C57BL/6J strain mice purchased from the National Laboratory Animal Center. The initial body weight was about 23 g, with 12 mice per group. They were housed at 60% relative humidity, room temperature 25±1° C., with a 12-hour light cycle (8:00-20:00). The experiment lasted for 22 weeks, during which food and water were provided ad libitum. Body weight, food intake, and water consumption were measured weekly.
(§3) The feeding dosage calculation was based on the experiment initial estimation method published by the U.S. Food and Drug Administration in 2005 (Estimating the maximum safe starting dose in initial clinical trials for therapeutics in adult healthy volunteers). Using a 60 kg adult as the standard, when conducting trials on higher experimental animals, the dosage conversion principle is to use 12.3 times the recommended daily intake per kilogram of human body weight (mg/kg bw/day) as the recommended daily intake per kilogram of mouse body weight. The calculation formula is as follows: […]
(§4) Embodiment 4 uses a high-fat feed to induce a nonalcoholic fatty liver animal model. The animal experiment lasted for 22 weeks. Animal test feed was prepared according to the formula of Research Diets (New Brunswick, NJ, USA) for D12450B and D12492. The grouping is as follows: • i. ND group: Normal animal group. • ii. HFD group: Control group, nonalcoholic fatty liver mice induced by high-fat feed. • iii. L008 group: Nonalcoholic fatty liver mice induced by high-fat feed and gavaged daily with red yeast rice powder, equivalent to 0.5 g of the red yeast rice of the present invention consumed daily by a 60 kg adult, containing 1.5 mg monascinol (a compound having the structure of Formula (I)). • iv. H008 group: Nonalcoholic fatty liver mice induced by high-fat feed and gavaged daily with red yeast rice powder, equivalent to 2 g of the red yeast rice of the present invention consumed daily by a 60 kg adult, containing 6 mg monascinol (a compound having the structure of Formula (I)). • v. […]

[2] = test system: nonalcoholic fatty liver mice induced by high-fat feed; assay: Serum liver function indices AST and ALT in high-fat feed induced nonalcoholic fatty liver mice
Experimental: as §1, §2, §3
Embodiment 4 uses a high-fat feed to induce a nonalcoholic fatty liver animal model. The animal experiment lasted for 22 weeks. […]
A biochemical auto-analyzer (Model Beckman-700, purchased from Fullerton, CA, USA) was used for detection. The items detected were: TC (Total Cholesterol), TG (Triglyceride), AST (Aspartate Aminotransferase) and ALT (Alanine Aminotransferase) activities.

[3] = test system: nonalcoholic fatty liver mice induced by high-fat feed; assay: Liver lipid extraction and measurement (TG, TC) in high-fat feed induced nonalcoholic fatty liver mice
Experimental: as §1, §2, §3
Embodiment 4 uses a high-fat feed to induce a nonalcoholic fatty liver animal model. The animal experiment lasted for 22 weeks. Animal test feed was prepared according to the formula of Research Diets (New Brunswick, NJ, USA) for D12450B and D12492. The grouping is as follows: • i. ND group: Normal animal group. • ii. HFD group: Control group, nonalcoholic fatty liver mice induced by high-fat feed. • iii. […]

[4] = test system: nonalcoholic fatty liver mice induced by high-fat feed; assay: Liver histopathology (H&E staining) assessment in high-fat feed induced nonalcoholic fatty liver mice
Experimental: as §1, §2, §3
Embodiment 4 uses a high-fat feed to induce a nonalcoholic fatty liver animal model. The animal experiment lasted for 22 weeks. Animal test feed was prepared according to the formula of Research Diets (New Brunswick, NJ, USA) for D12450B and D12492. The grouping is as follows: • i. ND group: Normal animal group. • ii. HFD group: Control group, nonalcoholic fatty liver mice induced by high-fat feed. • iii. L008 group: Nonalcoholic fatty liver mice induced by high-fat feed and gavaged daily with red yeast rice powder, equivalent to 0.5 g of the red yeast rice of the present invention consumed daily by a 60 kg adult, containing 1.5 mg monascinol (a compound having the structure of Formula (I)). • iv. H008 group: Nonalcoholic fatty liver mice induced by high-fat feed and gavaged daily with red yeast rice powder, equivalent to 2 g of the red yeast rice of the present invention consumed daily by a 60 kg adult, containing 6 mg monascinol (a compound having the structure of Formula (I)). • v. Msol group: Nonalcoholic fatty liver mice induced by high-fat feed and gavaged daily with monascinol (a compound having the structure of Formula (I)) powder, equivalent to 6 mg of monascinol (a compound having the structure of Formula (I)) powder consumed daily by a 60 kg adult.
In the 22nd week of the experiment, food was withheld for 12-14 hours before blood collection. […] The obtained blood samples were centrifuged at 4° C., 3,000×g for 15 minutes. The upper layer of blood was aliquoted into eppendorf tubes and stored at −80° C. The liver was weighed, and the second largest lobe was preserved in 10% pathological formalin. The remaining liver was washed with 0.9% physiological saline, and along with the kidneys, placed in zipper bags and stored at −80° C.
The liver was fixed in 10% formalin, dehydrated, and embedded in paraffin to make tissue sections. […]

[5] = test system: gut microbiota of nonalcoholic fatty liver mice; assay: Analysis of gut microbiota (full-length 16S sequencing) in nonalcoholic fatty liver mice; conditions: compared with the HFD group; L008, H008 and Msol groups
Experimental: as §4, with “iv.” for “iv. H008 group: Nonalcoholic fatty liver mice induced by high-fat feed and gavaged daily with red yeast rice powder, equivalent to 2 g of the red yeast rice of the present invention consumed daily by a 60 kg adult, containing 6 mg monascinol (a compound having the structure of Formula (I)). • v.”
(1) Extraction of Genomic DNA and PCR Amplification and Purification Total genomic DNA was extracted from samples (QIAamp PowerFecal DNA, Qiagen). DNA concentration was determined using a Qubit 4.0 fluorometer (Thermo Scientific) and adjusted to 1 ng/μL. […] PCR reactions were performed using KAPA HiFi HotStart ReadyMix (Roche): 95° C., 3 minutes; 20-27 cycles (sample-dependent): 95° C., 30 seconds, 57° C., 30 seconds, 72° C., 60 seconds; 72° C. for 5 minutes, and final storage at 4° C. PCR products were monitored on 1% agarose gel. […]

[6] = Msol group: monascinol 0.0012 g/kg bw/day by gavage, high-fat diet, 22 weeks, mean ± SD, n = 8
[7] = serum, Msol group: monascinol 0.0012 g/kg bw/day by gavage, high-fat diet, 22 weeks, mean ± SD, n = 8
[8] = lesion severity grade (0 to 4), Msol group: monascinol 0.0012 g/kg bw/day, high-fat diet, 22 weeks, mean ± SD, n = 8

Monascinol [Msol]
Liver Weight [1, 6]: 1.01 ± 0.06 ^a g | Liver/Body Weight [1, 6]: 2.85 ± 0.24 ^a % | Effect on liver weight, in words ([1]; versus HFD group, p<0.05, various doses (L008 and H008 groups) and Msol): significantly reducing liver weight | Effect on liver/body weight ratio, in words ([1]; versus HFD group, various doses (L008 and H008 groups) and Msol): improving the liver/body weight ratio | ALT Activity [2, 7]: 25.3 ± 3.4 ^a U/L | AST Activity [2, 7]: 60.6 ± 3.7 ^a U/L | Effect on serum AST and ALT activities, in words ([2]; versus HFD group, various doses (L008 and H008 groups) and Monascinol): significantly reduced AST and ALT activities | Liver TC [3, 6]: 1.02 ± 0.32 ^ab mg/g | Liver TG [3, 6]: 7.25 ± 0.71 ^a mg/g | Effect on TC and TG in the liver, in words ([3]; versus HFD group, p<0.05): effectively reduced the accumulation of TC and TG in the liver | Fatty change with macro-vesicles, multifocal [4, 8]: 0.3 ± 0.7 ^a | Fatty change with micro-vesicles, multifocal [4, 8]: 0.1 ± 0.4 ^a | Fatty change, general [4, 8]: 0.3 ± 0.7 ^a | Inflammation, granulomatous, multifocal ([4]; lesion severity grade (0 to 4), Msol group: monascinol 0.0012 g/kg bw/day, high-fat diet, 22 weeks, n = 8): 0 ^a | Effect on accumulation of liver lipid droplets / fatty infiltration, in words (FIG. 7, Table 6) ([4]; versus HFD group, p<0.05): significantly improved the accumulation of liver lipid droplets and fatty infiltration | Abundance of Blautia and Intestinimonas in the intestine, in words (FIG. 9) [5]: increase the microbial populations of Blautia and Intestinimonas
